Values quoted from earlier work as cited in patent publication US20050014769A1, “Use of endothelin receptor antogonists for the treatment of tumour diseases” (priority 2001, published 2005).
Square brackets hold non-standard residues; d marks the D form. Peptide text beside a SMILES is read from it.

How the values were obtained:
[1] = tested on: prostate cancer cell lines; conditions: in vitro; Nelson J B et al. Cancer Research 56, 663-668, 1996
[2] = tested on: HPV positive cervical carcinomas; conditions: cervical carcinoma; Venuti A et al., FASEB 14/14, 2279-2283, 2000
[3] = tested on: metastasis formation; conditions: rat metastasis model; Asham E et al. British Journal of Cancer 81/11, 2001
[4] = tested on: intestinal cancer cell lines; conditions: Ali H et al. Gut 47, 685-688, 2000
[5] = tested on: ovarian carcinoma cells; conditions: Del Bufalo D et al., Molecular Pharmacology 61/3, 2002
[6] = tested on: primary ovarian carcinoma cells; conditions: Bagnato A et al. Cancer Res 59, 720-727, 1999
[7] = tested on: melanoma cells; conditions: in vitro; AACR Abstract No. 358, 2002
[8] = tested on: pancreas tumour cells (ASPC-1); conditions: in vivo; AACR Abstract No. 3365, 2000

CCCCN(CCCC)C(=O)CN1C[C@H](c2ccc3c(c2)OCO3)[C@@H](C(=O)O)[C@@H]1c1ccc(OC)cc1 [Atrasentan]
growth of various prostate cancer cell lines [1]: inhibits the growth

CC(C)C[C@@H]1NC(=O)[C@@H](C(C)C)NC(=O)[C@@H]2CCCN2C(=O)[C@@H](CC(=O)O)NC(=O)[C@@H](Cc2c[nH]c3ccccc23)NC1=O [BQ123] (cyclo(L[dW][dD]P[dV]))
ET-1 stimulated proliferation of tumour cells [2]: can be inhibited
metastasis formation [3]: inhibits metastasis formation
ET-1 stimulated proliferation of intestinal cancer cell lines [4]: can be inhibited
ET-1 protection against apoptosis [5]: can be eliminated
proliferation of tumour cells [6]: inhibits the proliferation

COc1ccccc1Oc1c(NS(=O)(=O)c2ccc(C(C)(C)C)cc2)nc(-c2ncccn2)nc1OCCO [Bosetan]
proliferation of melanoma cells [7]: inhibits the proliferation

COc1ccccc1Oc1c(NS(=O)(=O)c2ccc(C(C)C)cn2)nc(-c2ccnc(-c3nnn[nH]3)c2)nc1OCCO [Ro 61-612/001]
proliferation of pancreas tumour cells (ASPC-1) [8]: inhibits the proliferation
